Measured values: patent US9963445B2, “Chemical compounds” (SYNGENTA PARTICIPATIONS AG, priority 2013, dated 2018)

Experiments:
Assay type in all cases: in vivo
Solanum nigrum [1] = test: Post-emergence herbicidal activity, glasshouse pot test; conditions: Application post-emergence, rate 1000 g/ha, evaluated after 13 days
Procedure: Seeds of a variety of test species were sown in standard soil in pots. After 8 days cultivation (post-emergence) under controlled conditions in a glasshouse (at 24/16° C., day/night; 14 hours light; 65% humidity), the plants were sprayed with an aqueous spray solution derived from the formulation of the technical active ingredient in acetone/water (50:50) solution containing 0.5% Tween 20 (polyoxyethelyene sorbitan monolaurate, CAS RN 9005-64-5). The test plants were then grown in a glasshouse under controlled conditions (at 24/16° C., day/night; 14 hours light; 65% humidity) and watered twice daily. After 13 days, the test was evaluated (5=total damage to plant; 0=no damage to plant).
ABUTH=Abutilon theophrasti; SOLNI=Solanum nigrum; AMARE=Amaranthus retroflexus; SETFA=Setaria faberi; ALOMY=Alopecurus myosuroides; ECHCG=Echinochloa crus-galli, ZEAMX=zea mays.

Alopecurus myosuroides [2] = test: Pre-emergence herbicidal activity, glasshouse pot test; conditions: pre-emergence spray, rate 1000 g/ha, evaluated after 13 days, scale 0-5
Outline: (§1)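 Seeds sown in standard soil were sprayed one day after sowing, before emergence, with compound formulated in acetone/water (50:50) plus 0.5% Tween 20. Plants were grown at 24/16 °C day/night, 14 h light, 65% humidity, watered twice daily, and damage was scored after 13 days (0 = none, 5 = total).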

zea mays [3] = test: as above; conditions: pre-emergence spray, rate 1000 g/ha, evaluated after 13 days, scale 0-5
Outline: as §1

Echinochloa crus-galli [4] = test: as above; conditions: pre-emergence spray, rate 1000 g/ha, evaluated after 13 days, scale 0-5
Outline: as §1

Solanum nigrum [5] = test: as above; conditions: pre-emergence spray, rate 1000 g/ha, evaluated after 13 days, scale 0-5
Outline: as §1

Setaria faberi [6] = test: as above; conditions: pre-emergence spray, rate 1000 g/ha, evaluated after 13 days, scale 0-5
Outline: as §1

Amaranthus retroflexus [7] = test: as above; conditions: pre-emergence spray, rate 1000 g/ha, evaluated after 13 days, scale 0-5
Outline: as §1

Alopecurus myosuroides [8] = test: Post-emergence herbicidal activity, glasshouse pot test; design: key: 0 = no damage to plant, 5 = total damage to plant; conditions: Application post-emergence, rate 1000 g/ha, evaluated after 13 days
Outline: (§2)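 Pot-grown seedlings, sown in standard soil, were sprayed 8 days after sowing and kept in a controlled glasshouse (24/16 °C, 14 h photoperiod, 65% humidity). Injury was assessed visually 13 days later on a scale where 5 means total damage.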

zea mays [9] = test: as above; design: key: 0 = no damage to plant, 5 = total damage to plant; conditions: Application post-emergence, rate 1000 g/ha, evaluated after 13 days
Outline: as §2

Echinochloa crus-galli [10] = test: as above; design: key: 0 = no damage to plant, 5 = total damage to plant; conditions: Application post-emergence, rate 1000 g/ha, evaluated after 13 days
Outline: as §2

Setaria faberi [11] = test: as above; design: key: 0 = no damage to plant, 5 = total damage to plant; conditions: Application post-emergence, rate 1000 g/ha, evaluated after 13 days
Outline: as §2

Amaranthus retroflexus [12] = test: as above; design: key: 0 = no damage to plant, 5 = total damage to plant; conditions: Application post-emergence, rate 1000 g/ha, evaluated after 13 days
Outline: as §2

Abutilon theophrasti [13] = test: Pre-emergence herbicidal activity, glasshouse pot test; conditions: pre-emergence spray, rate 1000 g/ha, evaluated after 13 days, scale 0-5
Outline: as §1

Abutilon theophrasti [14] = test: Post-emergence herbicidal activity, glasshouse pot test; design: key: 0 = no damage to plant, 5 = total damage to plant; conditions: Application post-emergence, rate 1000 g/ha, evaluated after 13 days
Outline: as §2

SMILES | SOLNI herbicidal damage score (Solanum nigrum [1]) | ALOMY damage score, application pre-emergence (Alopecurus myosuroides [2]) | ZEAMX damage score, application pre-emergence (zea mays [3]) | ECHCG damage score, application pre-emergence (Echinochloa crus-galli [4]) | SOLNI damage score, application pre-emergence (Solanum nigrum [5]) | SETFA damage score, application pre-emergence (Setaria faberi [6]) | AMARE damage score, application pre-emergence (Amaranthus retroflexus [7]) | ALOMY herbicidal damage score (Alopecurus myosuroides [8]) | ZEAMX herbicidal damage score (zea mays [9]) | ECHCG herbicidal damage score (Echinochloa crus-galli [10]) | SETFA herbicidal damage score (Setaria faberi [11]) | AMARE herbicidal damage score (Amaranthus retroflexus [12]) | ABUTH damage score, application pre-emergence (Abutilon theophrasti [13]) | ABUTH herbicidal damage score (Abutilon theophrasti [14])
CC1=C(Cl)C(=O)N(c2ccc(Cl)cn2)C1O (stereo not drawn) [AF65] | 5 | 2 | 0 | 1 | 4 | 2 | 5 | 4 | 1 | 4 | 5 | 5 | – | –
CC1=C(Cl)C(=O)N(c2cc(Cl)ccn2)C1O (stereo not drawn) [AF66] | 5 | 2 | 0 | 2 | 5 | 3 | 5 | 4 | 2 | 4 | 5 | 5 | – | –
CC1=C(Cl)C(=O)N(c2ccc(F)cn2)C1O (stereo not drawn) [AF67] | 5 | 2 | 0 | 1 | 3 | 3 | 5 | 3 | 1 | 4 | 4 | 5 | – | –
CC1=C(Cl)C(=O)N(c2ccc(C)cn2)C1O (stereo not drawn) [AF69] | 5 | 3 | 1 | 4 | 5 | 4 | 5 | 5 | 3 | 5 | 5 | 5 | – | –
CC1=C(Cl)C(=O)N(c2ccc(C(F)(F)F)cn2)C1O (stereo not drawn) [AF70] | 5 | 3 | 0 | 3 | 5 | 5 | 5 | 5 | 2 | 5 | 5 | 5 | – | –
CC1=C(Br)C(=O)N(c2ccc(C(F)(F)F)cn2)C1O (stereo not drawn) [AG2] | 5 | 3 | 0 | 1 | 4 | 4 | 5 | 4 | 2 | 5 | 5 | 5 | – | –
CCOC(=O)c1cnc(N2C(=O)C(OC)=C(C)C2O)nc1C(F)(F)F (stereo not drawn) [DI2] | – | 4 | 3 | 5 | – | 5 | 5 | 4 | 4 | 5 | 5 | 5 | 5 | 5
